Here are results for 4 compounds from patent US20240325373A1, “METHODS AND COMPOSITIONS FOR INHIBITION OF DIHYDROOROTATE DEHYDROGENASE IN COMBINATION WITH AN ANTI-CD47-SIRPA THERAPEUTIC AGENT” (OHIO STATE INNOVATION FOUNDATION, priority 2021, published 2024).

For one data set, the system named is MOLM-13 cells. As to the kind of experiment: Disseminated MOLM-13 xenograft, treatment from 4 days after implantation (Example 5). The conditions noted are these: for Statistical Significance: vs vehicle; for Median survival Ratio: Column A (vehicle) to Column B; for Median survival: treated group; for Hazard Ratio (Logrank) Ratio / Hazard Ratio (Mantel-Haenszel) Ratio: vehicle (Group 1) vs treated. The format is in vivo. More on the design: ILS / Median survival: unit not given here. As to the method: Briefly, ten week old male NCG mice (NOD-Prkdcem26Cd52//2rgem26Cd22/NjuCrl, Charles River) were injected intravenously (i.v.) in the tail vein with 1×10^5 MOLM-13 cells resuspended in cold phosphate buffer saline (PBS), using 0.2 mL of a suspension at 5×10^5 MOLM-13 cells/mL. Four days after tumor cell implantation, which was designated as Day 1 of the study, mice were randomized into eight treatment groups (n=10) based on body weights. Note that for the sample administration above, vehicle was a 50/50 mix of 40% HPBCD in sterile water and 10% Ethanol/90% PEG400. […] The remaining mice were left on study to monitor for an additional 25 days to determine if any residual disease would relapse following drug cessation. Thus, at day 106, all remaining mice were euthanized and spleens and bone marrow were harvested and analyzed by flow cytometry to investigate whether residual disease was present.

In the next data set the test system is MV4-11 cells. Briefly: CALR, CD47 and SIRPα surface expression (MFI, flow cytometry) in MV4-11 cells after DHODHi treatment with or without uridine. The format is cell-based. The conditions noted are these: 72 h; BRQ 500 nM, Cpd4 10, 25, 50, 100 nM, BAY 1 nM; reversible with 0.1 mM uridine. As to the method:
MV4-11 cells were treated with vehicle (DMSO), brequinar (BRQ, 500 nM), Cpd4 (10, 25, 50, 100 nM), or BAY2402234 (BAY, 1 nM) for 72 hours, in the presence or absence of exogenous uridine (0.1 mM). After the 72-hour treatment, cells were collected, washed and stained for flow cytometric analysis and the mean fluorescent intensity (MFI) measured to determine calreticulin (CALR) and CD47 surface expression.
(§1) FIGS. 8A-8B show representative data for the Mean Fluorescent Intensity (MFI) of SIRPα (CD172a) surface expression following the indicated treatments. […] Briefly, cells were treated for 72 hours to determine SIRPα level using flow cytometry and determine if SIRPα level was different in the P53 mutant clones. As shown, SIRPα level appears modestly higher in the heterozygous P53 MV4-11 clone. […] Briefly, MV4-11 cells were treated for 72 hours with DHODHi with or without uridine to measure SIRPα surface expression post DHODHi therapy.

The subject of data set [1] is MV4-11 P53 wild type, heterozygous and homozygous clones. As to the kind of experiment: Sensitivity and CD47/SIRPα surface expression of MV4-11 P53 clones treated with DHODHi. The format is cell-based. The conditions noted are these: 72 h; reversed with 0.1 mM exogenous uridine. As to the method: MV4-11 cell line was reported to harbor a R248W TP53 hotspot mutation (Yan B, Chen Q, Xu J, Li W, Xu B, Qiu Y. Leukemia 2020 doi 10.1038/s41375-020-0710-7.). Accordingly, the MV4-11 cell line was single cell sorted to separate the P53 mutant sub-clone and generated three clones; P53 wild type, P53 heterozygous, and P53 homozygous to interrogate the potential role of P53 mutation on DHODHi activity and if DHODHi affected CD47 expression. Therefore, MV4-11 clones were treated with DHODHi, brequinar (BRQ) or Cpd4 for 72 hours. Cells were then collected, washed with PBS then stained for flow cytometry analysis of CD47 surface expression and the overall sensitivity of the MV4-11 clones to DHODHi.
as §1

The subject of another data set is MM1.S. Briefly: CD47 surface expression by flow cytometry in multiple myeloma cell line MM1.S. The format is cell-based. As to conditions: from 48 h after the start of treatment. As to the method: (§2) Briefly, tumor cells were typically grown at 37° C. in a humidified atmosphere with 5% C02 in RPMI 1640 medium, supplemented with 10% (v/v) fetal calf serum and 50 μg/ml gentamicin for up to 20 passages, and were typically passaged once or twice weekly. Cells were harvested by centrifugation, and the percentage of viable cells were determined using a CASY Model TT cell counter (OMNI Life Science). Cells were harvested from exponential phase cultures, counted and plated in […] plates at a cell density depending on the cell line's growth rate in RPMI 1640 medium supplemented with 10% (v/v) fetal calf serum and 50 µg/ml gentamicin (140 μl/well). At the time of plating, a t=0 h timepoint was taken as a baseline measurement (dotted horizontal lines in the figures). Cultures were incubated at 37° C. and 5% C02 in a humidified atmosphere. At 24 h after cell seeding, DMSO (vehicle control) or the test compound at three different concentrations was added, and left on the cells for another 48 h, 96 h, or 144 h. […] After standard washing techniques, the cells were analyzed on an Attune NxT Acoustic Focusing Cytometer (Thermo Fisher Scientific, Waltham, MA). Antibody Binding Capacity (ABC) was determined using Quantum™ Simply Cellular® quantification beads (Bio-Rad Laboratories, Hercules, CA).
(In general: In flow cytometry, cells or beads pass a laser one at a time.)

For a further data set, the system named is H929. Briefly: CD47 surface expression by flow cytometry in multiple myeloma cell line H929. The format is cell-based. The conditions noted are these: from 48 h after the start of treatment. As for the experimental part:
as §2

The test system of the next data set is U266B1. As to the kind of experiment: CD47 surface expression and viability by flow cytometry in multiple myeloma cell line U266B1. The format is cell-based. The conditions noted are these: three concentrations of Cpd4. As to the method:
as §2

Data set [2] is described as follows: Separate cell-based assays (IC50 of Cpd4).
The test system of another data set is MOLM-13 tumor cells. As to the kind of experiment: Disseminated MOLM-13 aggressive xenograft, treatment from 10 days after implantation (Example 6). The format is in vivo. As to conditions: for BW Nadir (Lowest Mean Body Weight for Group): % of initial mean BW. As to the method:
Briefly, NCG mice were i.v. injected in the tail vein with 1×10^5 MOLM-13 tumor cells suspended in PBS in a cell injection volume of 0.2 mL/mouse. Animals were randomized into treatment groups based on Day 1 body weight. The study start date (Day 1) was at 10 days post implant (tumor injection). In the study, males were separated into single housing if excessive fighting or aggressive behavior was observed. The animals were 8 to 12 weeks old at study start. […] Any group with a mean body weight loss of >20% or >10% mortality had dosing terminated, but not euthanized, and allowed to recover. Within a group, any individual animal with a >20% weight loss endpoint were euthanized. […] At the endpoint, the animals were euthanized per standard procedure. Clinical signs associated with progression of tumor include impairment of hind limb function, ocular proptosis, and weight loss. Full hindlimb paralysis, ocular proptosis, or moribundity were considered sufficient for euthanasia.

In data set [3] the test system is a variety of unrelated viruses. As to conditions: in vitro; Harvey et al. (2009); read-out: EC50, inhibition of virus replication; cited from earlier work.

The structures appear in SMILES notation.

In the case of `CCn1c(CO)nn(-c2cc(O[C@@H](C)C(F)(F)F)c(C(=O)Nc3c(F)cccc3Cl)cc2F)c1=O` [BAY2402234, N-(2-chloro-6-fluorophenyl)-4-(4-ethyl-3-(hydroxymethyl)-5-oxo-4,5-dihydro-1H-1,2,4-triazol-1-yl)-5-fluoro-2-((1,1,1-trifluoropropan-2-yl)oxy)benzamide, reference compound], in the data set on MOLM-13 cells (4 mg/kg po qd), the “Deaths NTRa” value was determined as 1, the ILS stood at 144, the “Mean BW Nadir” value was −5.7% and the “Median TTE” value came to 44.0. Besides, in the data set on MOLM-13 cells (4 mg/kg po qd), the “n Remaining Day 106” value worked out at 0, the “Statistical Significance” value is “*** (*** = P ≤ 0.001)”, the “Median survival Ratio” value is 0.4091 and the “Median survival” value is 44. Also, in the data set with MOLM-13 cells (4 mg/kg po qd), the “Hazard Ratio (Logrank) Ratio” value amounted to 4.397 and the “Hazard Ratio (Mantel-Haenszel) Ratio” value is on record as 21.48. In addition, in the data set with MV4-11 cells, the “CALR surface expression (MFI)” value was “upregulated” and the “CD47 surface expression (MFI)” value is “upregulated”.
Take `Cc1c(-c2ccc(-c3ccccc3F)cc2)nc2ccc(F)cc2c1C(=O)O` [BRQ, 6-fluoro-2-(2′-fluoro-1,1-biphenyl-4-yl)-3-methyl-4-quinolinecarboxylic acid, reference compound]: in the data set on MV4-11 cells, the “CALR surface expression (MFI)” value is on record as “upregulated” and the “CD47 surface expression (MFI)” value is “upregulated”. For the same compound, in [1], the CD47 surface expression result is recorded as “upregulate surface CD47 expression regardless of the P53 mutation status” and the SIRPα surface expression entry is reported as “upregulate surface SIRPα expression regardless of the P53 mutation status”.
Usually IC50 stands for the concentration that inhibits the measured activity by half. On to `CCCCOc1cccc(-c2ccc(-c3cc(C(=O)O)c4cc(F)ccc4n3)cc2)c1` [Cpd4, 2-(3′-butoxy-[1,1′-biphenyl]-4-yl)-6-fluoroquinoline-4-carboxylic acid], for which, in the data set on MOLM-13 cells (4 mg/kg po qd), the ILS amounted to 125, the “Mean BW Nadir” value is given as −4.1%, the “Median TTE” value is reported as 40.5 and the “n Remaining Day 106” value was determined as 0. For the same compound, in the data set on MOLM-13 cells (4 mg/kg po qd), the “Statistical Significance” value was “*** (*** = P ≤ 0.001)”, the “Median survival Ratio” value was 0.4444, the “Median survival” value turned out to be 40.5 and the “Hazard Ratio (Logrank) Ratio” value was 4.553. In the data set on MOLM-13 cells (4 mg/kg po qd), the “Hazard Ratio (Mantel-Haenszel) Ratio” value is 25.21. In the data set on MOLM-13 cells (10 mg/kg po qd), the “Deaths TR” value came to 0, the ILS came to 183, the “Mean BW Nadir” value is reported as −3.5% and the “Median TTE” value is reported as 51.0. Further, in the data set on MOLM-13 cells (10 mg/kg po qd), the “n Remaining Day 106” value amounted to 0, the “Statistical Significance” value is listed as “*** (*** = P ≤ 0.001)”, the “Median survival Ratio” value was 0.3529 and the “Median survival” value worked out at 51. Further, in the data set with MOLM-13 cells (10 mg/kg po qd), the “Hazard Ratio (Logrank) Ratio” value came to 4.553 and the “Hazard Ratio (Mantel-Haenszel) Ratio” value was determined as 25.21. In the data set on MM1.S, the CD47 surface expression result was “increase in CD47 surface expression in these cell lines apparent starting at 48 h”. Moreover, in the data set on MV4-11 cells, the “CALR surface expression (MFI)” value is reported as “upregulated” and the “CD47 surface expression (MFI)” value was “upregulated”. Further, in [1], the CD47 surface expression result is “upregulate surface CD47 expression regardless of the P53 mutation status” and the SIRPα surface expression entry is reported as “upregulate surface SIRPα expression regardless of the P53 mutation status”. The CD47 surface expression result with H929 was “increase in CD47 surface expression in these cell lines apparent starting at 48 h”. Also, the overall cell viability entry in the data set on U266B1 (48 h, 96 h, 144 h) is “dose-dependent correlation in Cpd4 concentration and overall cell viability”. For the same compound, the “surface expression of CD47 (median fluorescence intensity, antibody binding capacity)” value in the data set with U266B1 (96 h and 144 h) is reported as “increased in a dose-dependent manner”. Also, the IC50 in [2] came to 11 nM. Besides, in the data set on MOLM-13 tumor cells (Cpd4 4.12 mg/kg po qd to end), the “ILS (Increased Life Span)” value was 174.1; the “Median TTE (Median Time to Endpoint)” value worked out at 37 days; the “NTR (No. of Non-treatment-related Deaths, due to Accident/Unknown Etiology)” value amounted to 0; the “NTRm (No. of Non-treatment-related Deaths, due to Metastasis)” value is recorded as 0. In the data set with MOLM-13 tumor cells (Cpd4 4.12 mg/kg po qd to end), the “TR (No. of Treatment-related Deaths)” value was 0, the “s (Number of Remaining Animals)” value is given as 0 and the “BW Nadir (Lowest Mean Body Weight for Group)” value is given as −9.0% (35). Moreover, in the data set with MOLM-13 tumor cells (Cpd4 10.31 mg/kg po qd to end), the “ILS (Increased Life Span)” value is recorded as 225.9; the “Median TTE (Median Time to Endpoint)” value amounted to 44 days; the “NTR (No. of Non-treatment-related Deaths, due to Accident/Unknown Etiology)” value came out at 0; the “NTRm (No. of Non-treatment-related Deaths, due to Metastasis)” value stood at 0. In addition, in the data set on MOLM-13 tumor cells (Cpd4 10.31 mg/kg po qd to end), the “TR (No. of Treatment-related Deaths)” value was 0, the “s (Number of Remaining Animals)” value is recorded as 5 and the “BW Nadir (Lowest Mean Body Weight for Group)” value is listed as −5.2% (42).
In general, EC50 refers to the concentration that produces a half-maximal response. Turning to `O=C(N[C@@H]1CCCc2c1[nH]c1ccc(Cl)cc21)c1ccccn1` [GSK983], the 50% effective concentration (EC50) in [3] was 5 to 20 nM.
